The experiment concerns the target T1, human liver GK (Homo sapiens, UniProt P35557).
T1 construct: GST (glutathione S-transferase) (N); made in house; host or cells: E. coli
T1 sequence (P35557 1-466 isoform P35557-2): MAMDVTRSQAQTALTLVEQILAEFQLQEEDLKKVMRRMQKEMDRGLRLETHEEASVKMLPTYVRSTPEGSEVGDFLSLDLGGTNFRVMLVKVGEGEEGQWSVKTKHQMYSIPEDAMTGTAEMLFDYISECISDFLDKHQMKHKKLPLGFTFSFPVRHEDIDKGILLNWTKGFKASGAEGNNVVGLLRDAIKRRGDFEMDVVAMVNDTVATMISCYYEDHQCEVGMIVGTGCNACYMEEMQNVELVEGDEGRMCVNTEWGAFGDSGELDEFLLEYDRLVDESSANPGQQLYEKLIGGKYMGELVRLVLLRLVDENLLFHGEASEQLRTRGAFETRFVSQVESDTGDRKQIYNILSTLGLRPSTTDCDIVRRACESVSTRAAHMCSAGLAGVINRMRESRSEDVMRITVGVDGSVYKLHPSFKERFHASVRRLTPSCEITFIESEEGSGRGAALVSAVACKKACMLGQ
Briefly: GK activation test. The class given is biochemical. The following applies: test compound concentration needed to activate 50% of maximum activation ability; 4 mM 14C-labeled glucose, 2 mM ATP, room temperature, 20 minutes. Here is the method: The GK activation test for the test compounds was performed by the method of Irwin A. Rose et al. (J. Biol. Chem. 1964 January; 239:12-7) with partial modifications.
The enzyme source used in this assay, human liver GK, was expressed in E. coli as a fusion protein with GST (glutathione S-transferase) added to the amino terminus and was purified using Glutathione Sepharose 4B (Amersham Biosciences).
The test was carried out using flat-bottom 96-well plates (Sumitomo Bakelite Co., Ltd.). A solution of the test compound in dimethyl sulfoxide (DMSO) and DMSO as a control were added to each well of the plates at a final DMSO concentration of 1%. 25 mM Hepes-KOH (pH=7.1), 25 mM KCl, 2 mM MgCl2, 2 mM ATP, 4 mM ^14C-labeled glucose (Muromachi Yakuhin) and 1 mM DTT (dithiothreitol) were further added at the indicated final concentrations, respectively. Finally, human liver GK was added at 0.24 microgram per well and the reaction was started. The reaction was carried out at room temperature.
After 20 minutes, AG1-X4 resin (BioRad) suspended in 25 mM Hepes-KOH (pH=7.1) was added and the reaction product, labeled glucose 6-phosphate, was allowed to bind thereto. The whole volume was transferred to MultiScreen plates (Millipore) and the resin was washed with water. Thereafter, the labeled glucose 6-phosphate binding to the resin was eluted with a 0.5 M NaCl solution. The labeling activity of the eluted labeled glucose 6-phosphate was measured as an index of GK activity.
The GK activity maximally activated by the test compound was described as maximum activation ability, and the test compound concentration needed to activate 50% of that ability was described as EC50.
For `O=C1CC[C@H](/C=C(\c2ccc(OCc3ccccc3)cc2)c2ccc(Cl)c(=O)[nH]2)N1` [Example 4-154, 6-{(E)-1-[4-(Benzyloxy)phenyl]-2-[(2R)-5-oxopyrrolidin-2-yl]ethenyl}-3-chloropyridin-2(1H)-one], the EC50 (in general, the concentration giving half of the maximal effect) fell in the range of 500 to 3000 nM.
As for `CS(=O)(=O)c1ccc(/C(=C\C2CCCC2)c2ccc(C3CC3)c(=O)[nH]2)cc1` [Example 1-6, 6-{(E)-2-Cyclopentyl-1-[4-(methylsulfonyl)phenyl]ethenyl}-3-cyclopropylpyridin-2(1H)-one], the figure is 10 to 500 nM; as for `O=C1CC[C@H](CC(c2ccc(O)c(Cl)c2)c2ccc(C3CC3)c(=O)[nH]2)N1` (single isomer, unassigned) [Example 4-250], 500 to 3000 nM; as for `CN1CCN(S(=O)(=O)c2ccc(C(CC3CCCC3)c3ccc(Cl)c(=O)[nH]3)cc2)CC1` (stereo not drawn) [Example 2-24, 3-Chloro-6-(2-cyclopentyl-1-{4-[(4-methylpiperazin-1-yl)sulfonyl]phenyl}ethyl)pyridin-2(1H)-one], 3000 to 10000 nM.
With `CSc1ccc(/C(=C\CC2CCOC2)c2ccc(C3CC3)c(=O)[nH]2)cc1` (stereo not drawn) [Example 1-49, 3-Cyclopropyl-6-{(1E)-1-[4-(methylsulfanyl)phenyl]-3-(tetrahydrofuran-3-yl)prop-1-en-1-yl}pyridin-2(1H)-one] the figure was 500 to 3000 nM; with `O=c1[nH]c(/C(=C/[C@H]2CC[C@H](O)CC2)c2ccc(S(=O)(=O)C3CC3)cc2)ccc1C(F)(F)F` [Example 1-91, 6-[(E)-1-[4-(Cyclopropylsulfonyl)phenyl]-2-(trans-4-hydroxycyclohexyl)ethenyl]-3-(trifluoromethyl)pyridin-2(1H)-one], 500 to 3000 nM.
As for `CCOc1ccc(C(C[C@H]2CCC(=O)N2)c2ccc(Cl)c(=O)[nH]2)cc1C` (single isomer, unassigned) [Example 4-239], the EC50 lay within 500 to 3000 nM.
For `Cc1ccc(/C(=C/[C@H]2CCC(=O)C2)c2ccc(SCCCO)c(Cl)c2)[nH]c1=O` [Example 1-73, 6-{(E)-1-{3-Chloro-4-[(3-hydroxypropyl)sulfanyl]phenyl}-2-[(1S)-3-oxocyclopentyl]ethenyl}-3-methylpyridin-2(1H)-one], the EC50 was 10 to 500 nM.
Compound `CC(C)Cn1cc(-c2ccc(/C(=C/[C@H]3CCC(=O)N3)c3ccc(C(C)(C)C)cc3)[nH]c2=O)cn1` [Example 4-182, 6-{(E)-1-(4-tert-Butylphenyl)-2-[(2R)-5-oxopyrrolidin-2-yl]ethenyl}-3-[1-(2-methylpropyl)-1H-pyrazol-4-yl]pyridin-2(1H)-one] registered an EC50 of 500 to 3000 nM.
As for `CCc1ccc(/C(=C/[C@H]2CCC(=O)C2)c2ccc(S(=O)(=O)CCCO)c(Cl)c2)[nH]c1=O` [Example 1-76, 6-{(E)-1-{3-Chloro-4-[(3-hydroxypropyl)sulfonyl]phenyl}-2-[(1S)-3-oxocyclopentyl]ethenyl}-3-ethylpyridin-2(1H)-one], the figure is 10 to 500 nM; as for `CC(C)(C)c1ccc(/C(=C\[C@@H]2CCC(=O)N2)c2ccc(Cl)c(=O)[nH]2)cc1` [Example 4-75, 6-{(E)-1-(4-tert-Butylphenyl)-2-[(2S)-5-oxopyrrolidin-2-yl]ethenyl}-3-chloropyridin-2(1H)-one], 3000 to 10000 nM.
With `O=C1CC[C@H](/C=C(\c2ccc(OCCCCO)c(Cl)c2)c2ccc(Cl)c(=O)[nH]2)N1` [Example 4-38, 3-Chloro-6-{(E)-1-[3-chloro-4-(4-hydroxybutoxy)phenyl]-2-[(2R)-5-oxopyrrolidin-2-yl]ethenyl}pyridin-2(1H)-one] the figure was 10 to 500 nM; with `O=c1[nH]c(/C(=C/C2CCOCC2)c2ccc(N3CCOCC3)cc2)ccc1Cl` [Example 1-111, 3-Chloro-6-[(E)-1-[4-(morpholin-4-yl)phenyl]-2-(tetrahydro-2H-pyran-4-yl)ethenyl]pyridin-2(1H)-one], 3000 to 10000 nM; with `Cc1ccc(C(C[C@H]2CCC(=O)N2)c2ccc(Cl)c(=O)[nH]2)cc1Cl` (single isomer, unassigned) [Example 4-310], 500 to 3000 nM.
With `O=C1CC[C@H](/C=C(\c2ccc(C(F)(F)F)c(F)c2)c2ccc(C3CC3)c(=O)[nH]2)N1` [Example 4-116, 3-Cyclopropyl-6-{(E)-1-[3-fluoro-4-(trifluoromethyl)phenyl]-2-[(2R)-5-oxopyrrolidin-2-yl]ethenyl}pyridin-2(1H)-one] the figure was 10 to 500 nM.
For the compound `CC(C)(C)c1ccc(C(=C[C@H]2CCC(=O)N2)c2ccc(C3(O)CCC3)c(=O)[nH]2)cc1` [Example 4-203, 6-{1-(4-tert-Butylphenyl)-2-[(2R)-5-oxopyrrolidin-2-yl]ethenyl}-3-(1-hydroxycyclobutyl)pyridin-2(1H)-one], the half-maximal effective concentration (EC50) was 3000 to 10000 nM.
As for `O=C1CC[C@H](CC(c2ccc(C(F)(F)F)c(F)c2)c2ccc(C3CC3)c(=O)[nH]2)N1` (single isomer, unassigned) [Example 4-219], the figure is 500 to 3000 nM; as for `O=C1CC[C@H](CC(c2ccc(OC(F)F)cc2)c2ccc(C3CC3)c(=O)[nH]2)N1` (single isomer, unassigned) [Example 4-229], 500 to 3000 nM.
Take `CCCc1ccc(/C(=C\[C@H]2CCC(=O)N2)c2ccc(Cl)c(=O)[nH]2)cc1` [Example 4-16, 3-Chloro-6-[(E)-2-[(2R)-5-oxopyrrolidin-2-yl]-1-(4-propylphenyl)ethenyl]pyridin-2(1H)-one]: the concentration for a half-maximal effect (EC50) is 500 to 3000 nM.
With `CCN(CC)CCCOc1ccc(/C(=C\[C@H]2CCC(O)C2)c2ccc(C3CC3)c(=O)[nH]2)cc1Cl` (stereo partly drawn) [Example 1-87, 6-{(E)-1-{3-Chloro-4-[3-(diethylamino)propoxy]phenyl}-2-[(1S)-3-hydroxycyclopentyl]ethenyl}-3-cyclopropylpyridin-2(1H)-one] the figure was 500 to 3000 nM.
With `CCc1ccc(C(C[C@H]2CCC(=O)N2)c2ccc(C3CC3)c(=O)[nH]2)cc1Cl` (single isomer, unassigned) [Example 4-336] the figure was 10 to 500 nM; with `Cc1ccc(C(CC2CCCC2)c2ccc(S(C)(=O)=O)cc2)[nH]c1=O` (stereo not drawn) [Example 2-2, 6-{2-Cyclopentyl-1-[4-(methylsulfonyl)phenyl]ethyl}-3-methylpyridin-2(1H)-one], 500 to 3000 nM.
As for `CC1(C)CCc2cc(/C(=C\[C@H]3CCC(=O)N3)c3ccc(Cl)c(=O)[nH]3)ccc2O1` [Example 4-263, 3-Chloro-6-{(E)-1-(2,2-dimethyl-3,4-dihydro-2H-chromen-6-yl)-2-[(2R)-5-oxopyrrolidin-2-yl]ethenyl}pyridin-2(1H)-one], the figure is 500 to 3000 nM.
`O=c1[nH]c(/C(=C/C2CCCC2)c2ccc(S(=O)(=O)CCCO)cc2)ccc1C(F)(F)F` [Example 1-40, 6-[(E)-2-Cyclopentyl-1-{4-[(3-hydroxypropyl)sulfonyl]phenyl}ethenyl]-3-(trifluoromethyl)pyridin-2(1H)-one] gave an EC50 of 500 to 3000 nM.
`CSc1ccc(/C(=C\C2CN(C(C)=O)C2)c2ccc(C3CC3)c(=O)[nH]2)cc1` [Example 4-44, 6-{(E)-2-(1-Acetylazetidin-3-yl)-1-[4-(methylsulfanyl)phenyl]ethenyl}-3-cyclopropylpyridin-2(1H)-one] came in with an EC50 of 500 to 3000 nM.
As for `CC(C)(C)c1ccc(/C(=C\[C@H]2CCC(=O)N2)c2ccc(-c3cn[nH]c3)c(=O)[nH]2)cc1` [Example 4-361, 6-{(E)-1-(4-tert-Butylphenyl)-2-[(2R)-5-oxopyrrolidin-2-yl]ethenyl}-3-(1H-pyrazol-4-yl)pyridin-2(1H)-one], the figure is 10 to 500 nM; as for `O=C1CC[C@H](/C=C(\c2ccc(OC(F)(F)F)cc2)c2ccc(Cl)c(=O)[nH]2)N1` [Example 4-30, 3-Chloro-6-{(E)-2-[(2R)-5-oxopyrrolidin-2-yl]-1-[4-(trifluoromethoxy)phenyl]ethenyl}pyridin-2(1H)-one], 500 to 3000 nM; as for `CC(C)(C)c1ccc(C(C[C@H]2CCC(=O)N2)c2ccc(C(F)(F)F)c(=O)[nH]2)cc1` (single isomer, unassigned) [Example 4-314], 500 to 3000 nM.
As for `CC(C)(C)c1ccc(/C(=C\[C@H]2CCC(=O)N2)c2ccc(Cl)c(=O)[nH]2)cc1Cl` [Example 4-71, 6-{(E)-1-(4-tert-Butyl-3-chlorophenyl)-2-[(2R)-5-oxopyrrolidin-2-yl]ethenyl}-3-chloropyridin-2(1H)-one], the figure is 10 to 500 nM.
As for `O=C1CC[C@H](CC(c2ccc(C3CC3)c(=O)[nH]2)c2ccc(C(F)(F)F)cc2F)N1` (single isomer, unassigned) [Example 4-333], the figure is 3000 to 10000 nM.

(Values after US8822503B2, “2-pyridone compounds” (Taisho Pharmaceutical Co., Ltd, priority 2009, dated 2014).)
